From US20260250289A1, “BICYCLIC HETEROCYCLES AND THEIR USE AS WRN INHIBITORS” (Novartis AG, priority 2022, published 2026)

How the values were obtained:
[1] = target: T1, WRN helicase (aa N517-P1238) (Homo sapiens, UniProt Q14191); experiment: WRN ATPase assay (DNA dependent ATP hydrolysis, ADP-Glo); type: biochemical; conditions: 3 hours pre-incubation, 300 micromolar ATP, FLAP26 DNA; geometric mean of at least 2
T1 construct: The core helicase motif of the WRN protein (aa N517-P1238) was produced for this assay; His (N); ZZ (N); 3C protease cleavage site (N); made in house; host or cells: Sf21 insect cells (baculovirus; virus and BIICs made in SF9)
Method in brief: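 DNA-dependent ATP hydrolysis detected as ADP by ADP-Glo luminescence, using 300 μM ATP, 0.2 nM FLAP26 substrate and 10 nM WRN aa N517-P1238 (Tris pH 7.5 buffer, 2 mM MgCl2, 50 mM NaCl). IC50s fitted from normalized duplicate half-log dilutions; reported as geometric means of at least 2 replicates.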

[2] = tested on: SW48 cells; experiment: Proliferation assay SW48 (CellTiterGlo); type: cell-based; conditions: Homo sapiens, SW48, 96 h, SW48 colon carcinoma cells, 96 hours, CellTiterGlo; geometric mean of at least 2; read-out: Proliferation Assay SW48 GI50
Source text: (§1) The colon carcinoma cell lines SW48 (RRID: CVCL_1724), HCT 116 (RRID: CVCL_0291) and SNU-407 (RRID: CVCL_5058) were obtained from ATCC. The WRN-knockdown insensitive colon carcinoma cell line DLD-1 (RRID: CVCL_0248) was obtained from the Korean Cell Line Bank (KCLB), and used to generate a derivative in which the endogenous WRN gene copies were knocked out by CRISPR-mediated editing using standard CRISPR methods. The resulting cell line, DLD1-WRN-KO, was used to assess potential off-target compound effects.
SW48, SNU-407 and DLD1-WRN-KO cells were cultured in growth medium composed of RPMI-1640 (Amimed Cat #1-41F22-1), 2 mM L-Glutamine (Amimed Cat #5-10K50), 10 mM HEPES (Gibco Cat #15630-056), 1 mM sodium pyruvate (Amimed Cat #5-60F00-H), 1× Penicillin-Streptomycin (Amimed Cat #4-01F00-H) and 10% fetal calf serum (Amimed Cat #2-01F30-G, Lot #LB11566P). HCT 116 cells were cultured in growth medium composed of McCoys 5A (Amimed catalog #1-18F01-1), 2 mM L-Glutamine (Amimed Cat #5-10K50), 1× Penicillin-Streptomycin (Amimed Cat #4-01F00-H) and 10% fetal calf serum (Amimed Cat #2-01F30-G, Lot #LB11566P). All cells were maintained at 37° C. in a humidified 5% CO2 incubator.
Following filtration through a Steriflip-NY 20 μm filter (Millipore Cat #SCNY00020), trypsinized cells were seeded in 100 microliters growth medium at 2,000 (SW48) or 1,500 (SNU-407, DLD1-WRN-KO, HCT 116) cells/well into white, clear-bottom 96-well plates (Costar Cat #3903). Three replicate plates were prepared for each compound treatment condition. In addition, one plate (termed “day 0”) was prepared to quantify the number of viable cells at the time of compound addition. Following overnight incubation at 37° C. in a humidified 5% CO2 atmosphere, eight 3-fold serial dilutions of a given compound stock (obtained at a concentration of 10 mM in DMSO and stored at 4° C.) were dispensed directly into each of the triplicate assay plates using a HP 300D non-contact Digital Dispenser (TECAN). The final concentration of DMSO was normalized to 0.1% in all wells. 96 hours after compound addition, cellular ATP levels as a surrogate for cell viability was assessed following addition of 50 microliters CellTiterGlo (Promega Cat #G7573) reagent and luminescence quantification on a MPLEX multi-mode plate-reader (TECAN) following a 10 minute incubation at room temperature. The number of viable cells in the “day 0” plate were quantified identically on the day of compound addition.
For data analysis, the assay background signal that was determined in wells containing medium, but no cells, was subtracted from all other data points prior to further calculations. The extent of growth inhibition and potential cell kill was assessed by comparing the ATP levels (measured using CellTiterGlo, Promega) in compound-treated cells with those present at the time of compound addition. To this end, the following conditional concept was programmatically applied in HELIOS, an in-house software applying a multi-step decision tree to arrive at optimal concentration response curve fits (Gubler et al, SLAS DOI: 10.1177/2472555217752140) to calculate % growth (% G) for each compound-treated well: % G=(T−V0)/V0))*100 when T<V0, and % G=(T−V0)/(V−V0)))*100 when T≥V0, where V0 is the viability level at time of compound addition, while V and T represent vehicle-control and compound-treated viability levels, respectively, at the end of the compound incubation. 100%, 0% and −100% signify absence of growth inhibition, growth stasis, and complete cell kill, respectively. Compound concentrations leading to half-maximal growth inhibition (GI50) and residual cell viability at the highest tested compound concentration (Data (cmax), expressed in percent) were routinely calculated. Data analysis can also be carried out using commercially available software designed to derive IC50 values using 4-parameter fits (e.g. GraphPad Prism, XL fit). […]

[3] = tested on: DLD1-WRN-KO cells; experiment: Proliferation assay DLD1-WRN-KO (CellTiterGlo, off-target effects); type: cell-based; conditions: 96 hours, geometric mean of at least 2
Method: as §1, with “The” for “The colon carcinoma cell lines SW48 (RRID: CVCL_1724), HCT 116 (RRID: CVCL_0291) and SNU-407 (RRID: CVCL_5058) were obtained from ATCC. The”, “effects. […]” for “effects.”
Three replicate plates were prepared for each compound treatment condition. In addition, one plate (termed “day 0”) was prepared to quantify the number of viable cells at the time of compound addition. Following overnight incubation at 37° C. in a humidified 5% CO2 atmosphere, eight 3-fold serial dilutions of a given compound stock (obtained at a concentration of 10 mM in DMSO and stored at 4° C.) were dispensed directly into each of the triplicate assay plates using a HP 300D non-contact Digital Dispenser (TECAN). The final concentration of DMSO was normalized to 0.1% in all wells. 96 hours after compound addition, cellular ATP levels as a surrogate for cell viability was assessed following addition of 50 microliters CellTiterGlo (Promega Cat #G7573) reagent and luminescence quantification on a MPLEX multi-mode plate-reader (TECAN) following a 10 minute incubation at room temperature. The number of viable cells in the “day 0” plate were quantified identically on the day of compound addition.
For data analysis, the assay background signal that was determined in wells containing medium, but no cells, was subtracted from all other data points prior to further calculations. The extent of growth inhibition and potential cell kill was assessed by comparing the ATP levels (measured using CellTiterGlo, Promega) in compound-treated cells with those present at the time of compound addition. […] 100%, 0% and −100% signify absence of growth inhibition, growth stasis, and complete cell kill, respectively. Compound concentrations leading to half-maximal growth inhibition (GI50) and residual cell viability at the highest tested compound concentration (Data (cmax), expressed in percent) were routinely calculated. Data analysis can also be carried out using commercially available software designed to derive IC50 values using 4-parameter fits (e.g. GraphPad Prism, XL fit). The reported GI50 values are the geometrical means of at least 2 independent replicates.

T1 sequence (Q14191 517-1238): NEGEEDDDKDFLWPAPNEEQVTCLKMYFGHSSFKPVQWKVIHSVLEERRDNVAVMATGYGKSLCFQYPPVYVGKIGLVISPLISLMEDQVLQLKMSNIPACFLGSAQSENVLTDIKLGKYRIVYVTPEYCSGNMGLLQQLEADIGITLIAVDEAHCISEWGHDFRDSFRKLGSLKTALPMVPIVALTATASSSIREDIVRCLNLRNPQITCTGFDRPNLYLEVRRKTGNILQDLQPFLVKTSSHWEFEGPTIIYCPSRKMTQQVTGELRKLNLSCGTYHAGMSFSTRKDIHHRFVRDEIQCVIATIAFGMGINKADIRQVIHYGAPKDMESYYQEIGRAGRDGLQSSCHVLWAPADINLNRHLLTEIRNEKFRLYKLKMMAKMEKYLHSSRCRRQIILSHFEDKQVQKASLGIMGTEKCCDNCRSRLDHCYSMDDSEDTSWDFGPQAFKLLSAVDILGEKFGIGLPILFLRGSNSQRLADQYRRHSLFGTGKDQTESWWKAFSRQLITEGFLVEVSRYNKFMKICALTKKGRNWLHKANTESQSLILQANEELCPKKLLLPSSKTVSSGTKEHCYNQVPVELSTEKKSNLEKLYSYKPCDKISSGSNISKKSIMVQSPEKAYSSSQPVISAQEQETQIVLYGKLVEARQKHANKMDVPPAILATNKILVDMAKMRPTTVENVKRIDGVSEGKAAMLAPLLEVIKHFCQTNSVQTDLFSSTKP

Row | SMILES | IC50 [1] [µM] | GI50 [2] [µM] | GI50 [3] [µM]
1 | CCc1c(N2CCN(C(=O)c3c(O)ccc4cccnc34)CC2)c(=O)n2nc(C3=CCOCC3)nc2n1CC(=O)Nc1ccc(C(F)(F)F)cc1 [Example 14, 2-(2-(3,6-dihydro-2H-pyran-4-yl)-5-ethyl-6-(4-(7-hydroxyquinoline-8-carbonyl)piperazin-1-yl)-7-oxo-[1,2,4]triazolo[1,5-a]pyrimidin-4(7H)-yl)-N-(4-(trifluoromethyl)phenyl)acetamide] | 0.04 | 0.2 | > 10
2 | Cc1c(N2CCN(C(=O)c3c(O)cccc3O)CC2)c(=O)n2nc(C3=CCOCC3)nc2n1CC(=O)Nc1ccc(C(F)(F)F)cc1 [Example 15, 2-(2-(3,6-dihydro-2H-pyran-4-yl)-6-(4-(2,6-dihydroxybenzoyl)piperazin-1-yl)-5-methyl-7-oxo-[1,2,4]triazolo[1,5-a]pyrimidin-4(7H)-yl)-N-(4-(trifluoromethyl)phenyl)acetamide] | 0.05 | 4 | > 10
3 | Cc1c(N2CCN(C(=O)c3ccc(F)c(F)c3O)CC2)c(=O)n2nc(C3=CCOCC3)nc2n1CC(=O)Nc1ccc(C(F)(F)F)cc1 [Example 16, 2-(6-(4-(3,4-difluoro-2-hydroxybenzoyl)piperazin-1-yl)-2-(3,6-dihydro-2H-pyran-4-yl)-5-methyl-7-oxo-[1,2,4]triazolo[1,5-a]pyrimidin-4(7H)-yl)-N-(4-(trifluoromethyl)phenyl)acetamide] | 0.05 | 0.5 | > 10
4 | CCc1c(N2CCN(C(=O)c3c(O)ccc4ncccc34)CC2)c(=O)n2nc(C3=CCOCC3)nc2n1CC(=O)Nc1ccc(C(F)(F)F)cc1C [Example 18, 2-(2-(3,6-dihydro-2H-pyran-4-yl)-5-ethyl-6-(4-(6-hydroxyquinoline-5-carbonyl)piperazin-1-yl)-7-oxo-[1,2,4]triazolo[1,5-a]pyrimidin-4(7H)-yl)-N-(2-methyl-4-(trifluoromethyl)phenyl)acetamide] | 0.06 | 0.2 | > 10
5 | Cc1nc2ccccc2c(C(=O)N2CCN(c3c(C)n(CC(=O)Nc4ccc(C(F)(F)F)cc4)c4nc(C5=CCOCC5)nn4c3=O)CC2)c1O [Example 20, 2-(2-(3,6-dihydro-2H-pyran-4-yl)-6-(4-(3-hydroxy-2-methylquinoline-4-carbonyl)piperazin-1-yl)-5-methyl-7-oxo-[1,2,4]triazolo[1,5-a]pyrimidin-4(7H)-yl)-N-(4-(trifluoromethyl)phenyl)acetamide] | 0.09 | 1 | > 10
6 | CCc1c(N2CCN(C(=O)c3ccnc(C)c3O)CC2)c(=O)n2nc(C3=CCCCO3)nc2n1CC(=O)Nc1ccc(C(F)(F)F)cc1Cl [Example 23, N-(2-chloro-4-(trifluoromethyl)phenyl)-2-(2-(3,4-dihydro-2H-pyran-6-yl)-5-ethyl-6-(4-(3-hydroxy-2-methylisonicotinoyl)piperazin-1-yl)-7-oxo-[1,2,4]triazolo[1,5-a]pyrimidin-4(7H)-yl)acetamide] | 0.2 | 0.3 | > 10

Second part, the compound after the results:

Row | IC50 [1] [µM] | GI50 [2] [µM] | GI50 [3] [µM] | SMILES
7 | 0.05 | 0.9 | 8 | Cc1c(N2CCN(C(=O)c3cc(F)ccc3O)CC2)c(=O)n2nc(C3=CCOCC3)nc2n1CC(=O)Nc1ccc(C(F)(F)F)cc1 [Example 17, 2-(2-(3,6-dihydro-2H-pyran-4-yl)-6-(4-(5-fluoro-2-hydroxybenzoyl)piperazin-1-yl)-5-methyl-7-oxo-[1,2,4]triazolo[1,5-a]pyrimidin-4(7H)-yl)-N-(4-(trifluoromethyl)phenyl)acetamide]
8 | 0.06 | > 10 | > 10 | Cc1c(N2CCN(C(=O)c3ccnc(F)c3O)CC2)c(=O)n2nc(C3=CCOCC3)nc2n1CC(=O)Nc1ccc(C(F)(F)F)cc1 [Example 19, 2-(2-(3,6-dihydro-2H-pyran-4-yl)-6-(4-(2-fluoro-3-hydroxyisonicotinoyl)piperazin-1-yl)-5-methyl-7-oxo-[1,2,4]triazolo[1,5-a]pyrimidin-4(7H)-yl)-N-(4-(trifluoromethyl)phenyl)acetamide]
9 | 0.1 | > 10 | > 10 | Cc1c(N2CCN(C(=O)c3cc(F)cnc3O)CC2)c(=O)n2nc(C3=CCOCC3)nc2n1CC(=O)Nc1ccc(C(F)(F)F)cc1 [Example 21, 2-(2-(3,6-dihydro-2H-pyran-4-yl)-6-(4-(5-fluoro-2-hydroxynicotinoyl)piperazin-1-yl)-5-methyl-7-oxo-[1,2,4]triazolo[1,5-a]pyrimidin-4(7H)-yl)-N-(4-(trifluoromethyl)phenyl)acetamide]
10 | 0.1 | > 10 | > 10 | Cc1c(N2CCN(C(=O)c3cncc(F)c3O)CC2)c(=O)n2nc(C3=CCOCC3)nc2n1CC(=O)Nc1ccc(C(F)(F)F)cc1 [Example 22, 2-(2-(3,6-dihydro-2H-pyran-4-yl)-6-(4-(5-fluoro-4-hydroxynicotinoyl)piperazin-1-yl)-5-methyl-7-oxo-[1,2,4]triazolo[1,5-a]pyrimidin-4(7H)-yl)-N-(4-(trifluoromethyl)phenyl)acetamide]
